In US20250176550A1, “HERBICIDE COMPOSITION OF URACIL COMPOUND CONTAINING CARBOXYLATE FRAGMENT AND THE USE THEREOF” (Jiangsu Flag Chemical Industry Co., Ltd., priority 2022, published 2025):

Tests used:
Assay type in all cases: in vivo
setaria viridis = assay: Indoor virulence and combined effect, greenhouse pot test, post-emergence stem and leaf spray, fresh weight inhibition
Summary of the method: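 Greenhouse potted weeds sprayed post-emergence on stem and leaf at 3–4 leaf stage, with A and B alone or mixed; acetone solutions diluted in 0.1 wt% Tween-80, solvent-emulsifier water as blank.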

veronica persica = assay: as above
Summary of the method: (§1)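 Weeds in greenhouse pots received a spray-tower treatment, either post-emergence at the 3–4 leaf (grasses) or 4–6 leaf (broadleaf) stage, or pre-emergence as a soil spray 24 h after sowing. Compounds were applied in acetone diluted with 0.1 wt% Tween-80 water, alone or mixed, in g/ha. Fresh weight inhibition was measured at 21 days, with synergy judged by Gowing expected efficacy (E−E0 >10%).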

eleusine indica = assay: Indoor virulence and combined effect, greenhouse pot test, pre-emergence soil spray treatment, fresh weight inhibition
Description: (§2) The active ingredients A and B are respectively screened and an indoor combined effect of the composition on weeds was evaluated by an indoor test and a field test, to determine a combined effect of the composition on weeds.
(§3) Quantitative seeds of Poaceae weeds (echinochloa crusgalli, Digitaria sanguinalis, setaria viridis, Eleusine indica, avena fatua, alopecurus japonicus, alopecurus aequalis, Lolium multiflorum) and broadleaf weeds (eclipta prostrata, rorippa dubia, Abutilon theophrasti, conyza canadensis, veronica persica, myosoton aquaticum, polygonum lapathifolium, galium aparine var. tenerum, alisma plantago-aquatica, geranium carolinianum) were sown in paper cup containing nutrient soil with a diameter of 7 cm, covered with soil for 1 cm after sowing. After pressing and watering, they were cultured in a greenhouse according to a conventional method. Poaceae weeds grew to 3˜4 leaf stage, broad-leaved weeds grew to 4˜6 leaf stage, spraying treatment to both stem and leaf was performed; and pre-seedling soil spray treatment was performed 24 hours after sowing. Following an experimental design dosage, a WP-2000 walking spray tower (spindle speed 96 mm/r, spray height 200 mm, effective spray amplitude of nozzle 350 mm, nozzle flow rate 390 mL/min, nozzle walking speed 210 mm/s) was used for the spray treatment. The experiment was repeated three times. After being treated, a sample material is placed in an operation hall, and after the drug solution is naturally dried out, the sample material is placed in a greenhouse and managed according to the conventional method. A reaction of weeds to the drug agent is observed and recorded, and a regularly visual check of a control effect of the drug agent on weeds was performed after the treatment.
(§4) All of original drugs were using acetone as a solvent, being diluted with 0.1 wt % emulsifier of Tween-80 aqueous solution, and being diluted right before using.
(§5) When determining a ratio or content of the active ingredient A and the active ingredient B, it should be measured from characteristics of action of both agents and virulence thereof, as well as the main purpose of use of a formula shall also be considered in. In the present study, on a basis of previous pre-test, the dosages of the active ingredient A and the active ingredient B were set, when being used alone and mixed, as shown in the following table. Water containing no agent, but containing the same solvent and emulsifier was used as a blank control.
(§6) Repeat 4 times for each treatment, 3 pots per treatment each time and 30 weed seeds were sown for each pot.
(§7) Adopting an absolute number survey method, using a blade to cut the whole seedling of surviving weed along soil surface, and weighting the fresh weight of the weed with an analytical balance. For weeds that had died, counting the fresh weight as zero.
(§8) Survey period and frequency: 21 days after the treatment, total 1 investigation.
(§9) The theoretical fresh weight inhibition rate (E0-Expected Efficacy=[…]) of each treatment combination was calculated by Gowing method, and then compared with the measured inhibition rate (E-Observed Efficacy) to evaluate the combined effect type of both on weeds. When E-E0 value was greater than 10%, it was counted as a synergistic effect, less than −10%, it was counted as an antagonistic effect, and between −10%˜10%, it was counted as an additive effect. According to a plurality of factors including an actual control efficacy, a herbicide characteristic, a formula balance and other factors to determine the best ratio. In the formula, X is the fresh weight inhibition rate of the ingredient A at a dosage of P; Y is the fresh weight inhibition rate of the active ingredient B at a dosage of Q.
(§10) The statistical results are shown in Table 1 to Table 44 below, except for those marked clearly as “pre-emergence treatment”, all others are “post-emergence treatment”. […]

eclipta prostrata [1] = assay: as above
Description: as §2, §3, §4, §5, §6, §7, §8, §9, §10

digitaria sanguinalis = assay: as above
Description: as §2, §3, §4, §5, §6, §7, §8, §9, §10

eclipta prostrata [2] = assay: Indoor virulence and combined effect, greenhouse pot test, post-emergence stem and leaf spray, fresh weight inhibition
Summary of the method: as §1

`CCOC(=O)C(C)(C)OC(=O)c1cc(-n2c(=O)cc(C(F)(F)F)n(C)c2=O)c(F)cc1Cl` [Compound A-250] was tested, and the “Fresh weight inhibition rate %, A single agent” value (“Fresh weight inhibition rate %” for short) (setaria viridis; Table 6, 10 g a.i./ha, post-emergence, 21 days after treatment) was 52.54%, the “Fresh weight inhibition rate %” value (setaria viridis; Table 6, 15 g a.i./ha, post-emergence, 21 days after treatment) was 65.7% and the “Fresh weight inhibition rate %” value (setaria viridis; Table 6, 20 g a.i./ha, post-emergence, 21 days after treatment) was 78.77%. For the same molecule, the “Fresh weight inhibition rate %” value (setaria viridis; Table 8, 10 g a.i./ha, post-emergence, 21 days after treatment) was 52.54%, the “Fresh weight inhibition rate %” value (setaria viridis; Table 8, 15 g a.i./ha, post-emergence, 21 days after treatment) was 65.7% and the “Fresh weight inhibition rate %” value (setaria viridis; Table 8, 20 g a.i./ha, post-emergence, 21 days after treatment) was 78.77%. For the same molecule, the “Fresh weight inhibition rate %” value (setaria viridis; Table 10, A 10 g a.i./ha) was 52.54%, the “Fresh weight inhibition rate %” value (setaria viridis; Table 10, A 15 g a.i./ha) was 65.7% and the “Fresh weight inhibition rate %” value (setaria viridis; Table 10, A 20 g a.i./ha) was 78.77%. The “Fresh weight inhibition rate %” value (veronica persica; Table 9, 10 g a.i./ha, post-emergence, 21 days after treatment) was 68.79%, the “Fresh weight inhibition rate %” value (veronica persica; Table 9, 15 g a.i./ha, post-emergence, 21 days after treatment) was 70.47% and the “Fresh weight inhibition rate %” value (veronica persica; Table 9, 20 g a.i./ha, post-emergence, 21 days after treatment) was 82.86%. The “Fresh weight inhibition rate %” value (veronica persica; Table 23, A 5 g a.i./ha) was 62.6%, the “Fresh weight inhibition rate %” value (veronica persica; Table 23, A 10 g a.i./ha) was 68.79% and the “Fresh weight inhibition rate %” value (veronica persica; Table 23, A 15 g a.i./ha) was 70.47%. For the same molecule, the “Fresh weight inhibition rate %” value (veronica persica; Table 24, A 5 g a.i./ha) was 62.6%, the “Fresh weight inhibition rate %” value (veronica persica; Table 24, A 10 g a.i./ha) was 68.79% and the “Fresh weight inhibition rate %” value (veronica persica; Table 24, A 15 g a.i./ha) was 70.47%. For the same molecule, the “Fresh weight inhibition rate %” value (veronica persica; Table 24, A 20 g a.i./ha) was 82.86%, the “Fresh weight inhibition rate %” value (veronica persica; Table 26, A 2 g a.i./ha) was 24.6% and the “Fresh weight inhibition rate %” value (veronica persica; Table 26, A 5 g a.i./ha) was 62.6%. For the same molecule, the “Fresh weight inhibition rate %” value (veronica persica; Table 26, A 10 g a.i./ha) was 68.79%, the “Fresh weight inhibition rate %” value (veronica persica; Table 26, A 15 g a.i./ha) was 70.47% and the “Fresh weight inhibition rate %” value (eleusine indica; Table 21, A 25 g a.i./ha) was 69.44%. For the same molecule, the “Fresh weight inhibition rate %” value (eleusine indica; Table 21, A 30 g a.i./ha) was 90.86%, the “Fresh weight inhibition rate %” value (eclipta prostrata [1]; Table 28, A 5 g a.i./ha) was 52.89% and the “Fresh weight inhibition rate %” value (eclipta prostrata [1]; Table 28, A 10 g a.i./ha) was 66.05%. For the same molecule, the “Fresh weight inhibition rate %” value (eclipta prostrata [1]; Table 28, A 15 g a.i./ha) was 68.5%, the “Fresh weight inhibition rate %” value (eclipta prostrata [1]; Table 28, A 20 g a.i./ha) was 78.12% and the “Fresh weight inhibition rate %” value (digitaria sanguinalis; Table 39, A 15 g a.i./ha) was 68.96%. For the same molecule, the “Fresh weight inhibition rate %” value (digitaria sanguinalis; Table 39, A 20 g a.i./ha) was 75.50%, the “Fresh weight inhibition rate %” value (digitaria sanguinalis; Table 39, A 25 g a.i./ha) was 85.50% and the “Fresh weight inhibition rate %” value (digitaria sanguinalis; Table 40, A 15 g a.i./ha) was 68.96%. For the same molecule, the “Fresh weight inhibition rate %” value (digitaria sanguinalis; Table 40, A 20 g a.i./ha) was 75.50%.
For `COCCOC(=O)C(C)(C)OC(=O)c1cc(-n2c(=O)cc(C(F)(F)F)n(C)c2=O)c(F)cc1Cl` [Compound A-273], the “Fresh weight inhibition rate %” value (eclipta prostrata [2]; Table 11, A 2 g a.i./ha) was 28.12%, the “Fresh weight inhibition rate %” value (eclipta prostrata [2]; Table 11, A 4 g a.i./ha) was 38.50% and the “Fresh weight inhibition rate %” value (eclipta prostrata [2]; Table 11, A 8 g a.i./ha) was 46.05%. The “Fresh weight inhibition rate %” value (eclipta prostrata [2]; Table 11, A 16 g a.i./ha) was 52.89%, the “Fresh weight inhibition rate %” value (eclipta prostrata [2]; Table 12, A 4 g a.i./ha) was 38.50% and the “Fresh weight inhibition rate %” value (eclipta prostrata [2]; Table 12, A 8 g a.i./ha) was 46.05%. The “Fresh weight inhibition rate %” value (eclipta prostrata [2]; Table 12, A 16 g a.i./ha) was 52.89%, the “Fresh weight inhibition rate %” value (eclipta prostrata [2]; Table 42, A 2 g a.i./ha) was 28.12% and the “Fresh weight inhibition rate %” value (eclipta prostrata [2]; Table 42, A 4 g a.i./ha) was 38.50%. For the same molecule, the “Fresh weight inhibition rate %” value (eclipta prostrata [2]; Table 42, A 8 g a.i./ha) was 46.05%, the “Fresh weight inhibition rate %” value (eclipta prostrata [2]; Table 42, A 16 g a.i./ha) was 52.89% and the “Fresh weight inhibition rate %” value (eclipta prostrata [2]; Table 43, A 4 g a.i./ha) was 38.50%. The “Fresh weight inhibition rate %” value (eclipta prostrata [2]; Table 43, A 8 g a.i./ha) was 46.05%.
